Source: article PMC4585259 (Frontiers in Pharmacology, 2015)
Read-outs that look alike come from different tables or passages of the source.

Target: T1, rNav1.2 sodium channels (Rattus norvegicus, UniProt P04775)
T1 construct: host or cells: HEK-293
Assay: QPatch automated patch clamp, inhibition of sodium currents evoked by 5 Hz trains at three extracellular pH values
Type: cell-based
Settings: for class of pH-dependence pattern (cluster analysis): Ward's method on 18 variables of affinity, reversibility, onset; for τoffset / τonset: concentration (lidocaine 300 μM, memantine 30 μM)
Description: HEK-293 cells stably expressing rNav1.2 sodium channels were obtained from NeuroSearch (Ballerup, Denmark). The cells were grown in Dulbecco's modified Eagle medium supplemented with 10% FBS. Prior to use, the cells were trypsinized and subsequently kept in suspension in the QPatch cell storage facility in CHO-S- SFM-II medium.
Composition of the extracellular solution was: (in mM): 140 NaCl, 3 KCl, 1 CaCl2 1 MgCl2, 0.1 CdCl2, 20 TEA-Cl, 5 HEPES, adjusted to pH 7.3, Osmolality: 320 mOsm. […] Drugs were synthesized in Gedeon Richter Plc. […] The full list of drugs, with their three-letter codes, concentration, as well as their main therapeutic indication and main mechanism of action are shown in Table 1. […] The choice of concentrations used in this study may seem unusually high.
Data were sampled at a frequency of 25 kHz and filtered at 5 kHz. Junction potential was calculated to be −11 mV and was corrected for. […] Cells having membrane resistance < 500 MOhm, series resistance > 9 MOhm, or capacitance > 22 pF were excluded from analysis. The experimental protocol was also identical to the one used in our previous study: sodium channels were activated by 5 Hz trains of 5 depolarizations (−90 to −10 mV) repeated in every 20 s. In this study, however, the same control–drug-application–washout sequence was repeated four times: at neutral, acidic, alkalic, and again neutral pH. The peak amplitudes of sodium currents throughout the whole experiment are shown plotted against time in Figure 1 and Supplementary Figure 1.
Initial analysis, including subtraction of leak and capacitive artifacts, as well as peak detection were done in the QPatch software. […] All experiments were normalized to the amplitude of the current evoked by the first depolarization of the last train under control conditions. […] For all four drug applications in an experiment, apparent affinity, onset and offset time constants as well as reversibility values were calculated. […] (This method is equivalent to applying the Lineweaver-Burk plot method using a single concentration.) Reversibility values were calculated from control (c), inhibited (i), and wash-out (w) amplitudes as follows: Reversibility = (w-i)/(c-i). Reversibility values should not be regarded as experimental platform-independent properties of compounds. […] However, reversibility values are a valuable source of information regarding physicochemical differences between individual drugs, or between effects of the same drug under different extracellular pH conditions. Onset and offset time constants were determined by single exponential fitting to individual experiments. For neutral pH numerical data were given as the average of the data from the first and the last drug applications. Thin black lines on Figure 1 and Supplemental Figure 1 show the average of five fitted exponentials, (not the exponential fitted to the averaged normalized amplitudes). The numerical values of apparent affinity, onset and offset time constants and reversibility are shown in Table 2, and their relative position is illustrated in Figure 2. Affinity and time constant values were logarithmically transformed for statistics, therefore we show their geometric mean. For recovery data no transformation was done, and we show arithmetic mean values. Significance values were calculated using paired, two-tailed Student's t-test based on five pairs of apparent affinity (log transform), time constant (log transform), or reversibility values obtained from five individual experiments. Because of the large number of comparisons in this study, we accepted p < 0.01 as significant. Cluster analysis was done using Ward's minimum variance method, with Euclidean distance measure. Data were normalized by subtracting the mean (after logarithmic transformation in the case of apparent affinity and time constants), and dividing by the standard deviation.

[1] = pH 6.0, single concentration (lidocaine 300 μM, memantine 30 μM), geometric mean of 5, read-out: apparent affinity
[2] = pH 7.3, single concentration (lidocaine 300 μM, memantine 30 μM), geometric mean of 5, read-out: apparent affinity
[3] = pH 8.6, single concentration (lidocaine 300 μM, memantine 30 μM), geometric mean of 5, read-out: apparent affinity
[4] = pH=6.0, cc 100 mM, read-out: Apparent Affinity
[5] = pH=7.3, cc 100 mM, read-out: Apparent Affinity
[6] = pH=8.6, cc 100 mM, read-out: Apparent Affinity

T1 sequence (P04775 whole entry): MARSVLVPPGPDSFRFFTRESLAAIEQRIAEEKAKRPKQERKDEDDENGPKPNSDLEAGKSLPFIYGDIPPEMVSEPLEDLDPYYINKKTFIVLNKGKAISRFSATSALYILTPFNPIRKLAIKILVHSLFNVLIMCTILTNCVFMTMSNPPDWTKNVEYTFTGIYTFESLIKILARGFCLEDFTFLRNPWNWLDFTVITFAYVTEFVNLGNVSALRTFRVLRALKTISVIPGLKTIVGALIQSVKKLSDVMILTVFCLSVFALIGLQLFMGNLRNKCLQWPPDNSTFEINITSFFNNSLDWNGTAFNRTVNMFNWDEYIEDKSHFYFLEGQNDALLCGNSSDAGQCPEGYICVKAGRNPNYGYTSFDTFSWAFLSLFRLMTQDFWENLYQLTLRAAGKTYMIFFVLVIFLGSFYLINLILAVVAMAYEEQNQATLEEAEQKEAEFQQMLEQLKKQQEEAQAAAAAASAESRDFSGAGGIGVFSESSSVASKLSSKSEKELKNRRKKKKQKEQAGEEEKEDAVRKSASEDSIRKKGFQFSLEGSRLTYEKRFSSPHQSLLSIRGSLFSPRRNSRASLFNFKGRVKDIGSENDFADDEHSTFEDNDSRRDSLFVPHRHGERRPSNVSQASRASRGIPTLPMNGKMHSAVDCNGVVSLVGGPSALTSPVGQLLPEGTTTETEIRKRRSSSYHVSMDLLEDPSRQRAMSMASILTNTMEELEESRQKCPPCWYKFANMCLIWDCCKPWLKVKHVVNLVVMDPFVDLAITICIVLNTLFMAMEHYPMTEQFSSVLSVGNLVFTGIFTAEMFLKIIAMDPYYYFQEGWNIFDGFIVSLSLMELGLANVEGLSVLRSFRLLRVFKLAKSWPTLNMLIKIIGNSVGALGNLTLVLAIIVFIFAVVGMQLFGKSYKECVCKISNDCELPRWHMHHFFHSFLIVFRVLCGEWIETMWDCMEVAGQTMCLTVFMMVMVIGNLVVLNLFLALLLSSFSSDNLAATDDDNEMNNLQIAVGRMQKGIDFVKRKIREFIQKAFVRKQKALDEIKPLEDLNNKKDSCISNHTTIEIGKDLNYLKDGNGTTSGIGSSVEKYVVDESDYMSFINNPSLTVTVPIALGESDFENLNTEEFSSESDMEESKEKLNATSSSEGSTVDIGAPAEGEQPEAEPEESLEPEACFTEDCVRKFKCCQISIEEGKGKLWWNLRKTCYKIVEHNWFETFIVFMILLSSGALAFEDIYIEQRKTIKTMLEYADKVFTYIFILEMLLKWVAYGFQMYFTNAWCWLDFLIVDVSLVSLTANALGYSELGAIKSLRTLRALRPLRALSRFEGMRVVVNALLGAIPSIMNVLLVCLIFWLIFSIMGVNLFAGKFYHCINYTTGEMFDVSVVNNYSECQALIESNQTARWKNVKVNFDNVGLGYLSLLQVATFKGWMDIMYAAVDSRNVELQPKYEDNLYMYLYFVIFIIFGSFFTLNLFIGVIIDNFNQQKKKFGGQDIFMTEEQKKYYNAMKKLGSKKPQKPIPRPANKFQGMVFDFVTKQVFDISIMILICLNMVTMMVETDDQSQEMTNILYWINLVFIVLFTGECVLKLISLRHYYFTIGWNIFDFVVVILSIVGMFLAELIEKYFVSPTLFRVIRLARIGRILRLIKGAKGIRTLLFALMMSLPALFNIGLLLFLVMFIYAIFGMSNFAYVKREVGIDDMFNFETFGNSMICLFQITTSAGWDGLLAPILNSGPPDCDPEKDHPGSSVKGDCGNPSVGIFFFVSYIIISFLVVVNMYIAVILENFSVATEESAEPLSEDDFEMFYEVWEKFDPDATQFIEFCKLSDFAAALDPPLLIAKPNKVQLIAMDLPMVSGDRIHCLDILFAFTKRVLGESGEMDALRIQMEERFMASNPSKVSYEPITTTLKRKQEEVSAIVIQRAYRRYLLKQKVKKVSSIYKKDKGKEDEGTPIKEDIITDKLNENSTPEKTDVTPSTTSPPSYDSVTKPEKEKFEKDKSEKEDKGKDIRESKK

Cc1ccc(C(=O)C(C)CN2CCCCC2)cc1 (stereo not drawn) [tolperisone]
decrease of recovery at pH = 8.6 as compared to pH = 7.3: 1.35 fold | class of pH-dependence pattern (cluster analysis): Class F | Ratio Reversibility (pH 6.0/7.3, cc 100 mM): 0.699 | Ratio Tau Offset (pH 6.0/7.3, cc 100 mM): 1.256 | Ratio Tau Onset (pH 6.0/7.3, cc 100 mM): 1.028 | log Ratio App Aff (pH 6.0/7.3, cc 100 mM): 0.132 | Ratio Reversibility (pH 6.0/8.6, cc 100 mM): 0.944 | Ratio Tau Offset (pH 6.0/8.6, cc 100 mM): 1.286 | Ratio Tau Onset (pH 6.0/8.6, cc 100 mM): 1.423 | log Ratio App Aff (pH 6.0/8.6, cc 100 mM): 0.542 | τoffset (pH 6.0): 16.20 s | τonset (pH 6.0): 7.40 s | Kd [1]: 373 µM | Ratio Reversibility (pH 7.3/8.6, cc 100 mM): 1.349 | Ratio Tau Offset (pH 7.3/8.6, cc 100 mM): 1.024 | Ratio Tau Onset (pH 7.3/8.6, cc 100 mM): 1.385 | log Ratio App Aff (pH 7.3/8.6, cc 100 mM): 0.410 | τoffset (pH 7.3): 12.90 s | τonset (pH 7.3): 7.20 s | Kd [2]: 275 µM | τoffset (pH 8.6): 12.60 s | τonset (pH 8.6): 5.20 s | Kd [3]: 107 µM | KD app, effect of acidic medium (pH = 6.0 vs neutral, increased KD app = decreased apparent affinity): MEM,MEX,TOL↑ | Reversibility (pH=6.0, cc 100 mM): 0.65 | Kd [4]: 373 µM | Reversibility (pH=7.3, cc 100 mM): 0.93 | Kd [5]: 275 µM | Reversibility (pH=8.6, cc 100 mM): 0.69 | Kd [6]: 107 µM

Nc1c(Br)cc(Br)cc1CN[C@H]1CC[C@H](O)CC1 [ambroxol]
class of pH-dependence pattern (cluster analysis): Class G | Ratio Reversibility (pH 6.0/7.3, cc 100 mM): 0.839 | Ratio Tau Offset (pH 6.0/7.3, cc 100 mM): 0.759 | Ratio Tau Onset (pH 6.0/7.3, cc 100 mM): 0.884 | log Ratio App Aff (pH 6.0/7.3, cc 100 mM): 0.190 | Ratio Reversibility (pH 6.0/8.6, cc 100 mM): 1.137 | Ratio Tau Offset (pH 6.0/8.6, cc 100 mM): 0.708 | Ratio Tau Onset (pH 6.0/8.6, cc 100 mM): 0.667 | log Ratio App Aff (pH 6.0/8.6, cc 100 mM): 0.494 | τoffset (pH 6.0): 8.50 s | τonset (pH 6.0): 7.60 s | Kd [1]: 138 µM | Ratio Reversibility (pH 7.3/8.6, cc 100 mM): 1.355 | Ratio Tau Offset (pH 7.3/8.6, cc 100 mM): 0.933 | Ratio Tau Onset (pH 7.3/8.6, cc 100 mM): 0.754 | log Ratio App Aff (pH 7.3/8.6, cc 100 mM): 0.303 | τoffset (pH 7.3): 11.20 s | τonset (pH 7.3): 8.60 s | Kd [2]: 88.7 µM | τoffset (pH 8.6): 12.00 s | τonset (pH 8.6): 11.40 s | Kd [3]: 44.2 µM | Reversibility (pH=6.0, cc 100 mM): 0.65 | Kd [4]: 138 µM | Reversibility (pH=7.3, cc 100 mM): 0.78 | Kd [5]: 88.7 µM | Reversibility (pH=8.6, cc 100 mM): 0.58 | Kd [6]: 44.2 µM

Cc1nc2sccn2c(=O)c1CCN1CCC(=C(c2ccc(F)cc2)c2ccc(F)cc2)CC1 [ritanserin]
fold more potent at neutral pH than at pH = 6.0 (30 μM): 3.5 fold | fold more potent at neutral pH than at pH = 8.6 (30 μM): 5.9 fold | class of pH-dependence pattern (cluster analysis): Class E | effect of alkalic pH on onset/offset kinetics (in words): decelerated onset | alkalization-induced recovery (neutral-to-alkalic solution exchange, in words): prominent alkalization-induced recovery | reversibility at all three pH values (pH 6.0, 7.3 and 8.6): below 0.6 | Ratio Reversibility (pH 6.0/7.3, cc 30 mM): 0.981 | Ratio Tau Offset (pH 6.0/7.3, cc 30 mM): 0.863 | Ratio Tau Onset (pH 6.0/7.3, cc 30 mM): 0.656 | log Ratio App Aff (pH 6.0/7.3, cc 30 mM): 0.541 | Ratio Reversibility (pH 6.0/8.6, cc 30 mM): 4.330 | Ratio Tau Offset (pH 6.0/8.6, cc 30 mM): 0.456 | Ratio Tau Onset (pH 6.0/8.6, cc 30 mM): 0.393 | log Ratio App Aff (pH 6.0/8.6, cc 30 mM): -0.230 | τoffset (pH 6.0): 17.60 s | τonset (pH 6.0): 11.80 s | Kd [1]: 30.8 µM | Ratio Reversibility (pH 7.3/8.6, cc 30 mM): 4.412 | Ratio Tau Offset (pH 7.3/8.6, cc 30 mM): 0.528 | Ratio Tau Onset (pH 7.3/8.6, cc 30 mM): 0.600 | log Ratio App Aff (pH 7.3/8.6, cc 30 mM): -0.772 | τoffset (pH 7.3): 20.40 s | τonset (pH 7.3): 18.00 s | Kd [2]: 8.87 µM | τoffset (pH 8.6): 38.60 s | τonset (pH 8.6): 30.00 s | Kd [3]: 52.4 µM | Reversibility (pH=6.0, cc 30 mM): 0.36 | Kd (pH=6.0, cc 30 mM, read-out: Apparent Affinity): 30.8 µM | Reversibility (pH=7.3, cc 30 mM): 0.37 | Kd (pH=7.3, cc 30 mM, read-out: Apparent Affinity): 8.87 µM | Reversibility (pH=8.6, cc 30 mM): 0.08 | Kd (pH=8.6, cc 30 mM, read-out: Apparent Affinity): 52.4 µM

O=C(NCC1CCCCN1)c1cc(OCC(F)(F)F)ccc1OCC(F)(F)F (stereo not drawn) [flecainide]
class of pH-dependence pattern (cluster analysis): Class B | effect of alkalic pH on onset/offset kinetics (in words): significant acceleration of both onset and offset | Ratio Reversibility (pH 6.0/7.3, cc 300 mM): 1.142 | Ratio Tau Offset (pH 6.0/7.3, cc 300 mM): 1.344 | Ratio Tau Onset (pH 6.0/7.3, cc 300 mM): 2.358 | log Ratio App Aff (pH 6.0/7.3, cc 300 mM): 0.419 | Ratio Reversibility (pH 6.0/8.6, cc 300 mM): 2.794 | Ratio Tau Offset (pH 6.0/8.6, cc 300 mM): 3.109 | Ratio Tau Onset (pH 6.0/8.6, cc 300 mM): 7.632 | log Ratio App Aff (pH 6.0/8.6, cc 300 mM): 0.583 | τoffset (pH 6.0): 91.40 s | τonset (pH 6.0): 58.00 s | Kd [1]: 68.1 µM | Ratio Reversibility (pH 7.3/8.6, cc 300 mM): 2.446 | Ratio Tau Offset (pH 7.3/8.6, cc 300 mM): 2.313 | Ratio Tau Onset (pH 7.3/8.6, cc 300 mM): 3.237 | log Ratio App Aff (pH 7.3/8.6, cc 300 mM): 0.164 | τoffset (pH 7.3): 68.00 s | τonset (pH 7.3): 24.60 s | Kd [2]: 25.9 µM | τoffset (pH 8.6): 29.40 s | τonset (pH 8.6): 7.60 s | Kd [3]: 17.8 µM | Reversibility (pH=6.0, cc 300 mM): 0.64 | Kd (pH=6.0, cc 300 mM, read-out: Apparent Affinity): 68.1 µM | Reversibility (pH=7.3, cc 300 mM): 0.56 | Kd (pH=7.3, cc 300 mM, read-out: Apparent Affinity): 25.9 µM | Reversibility (pH=8.6, cc 300 mM): 0.23 | Kd (pH=8.6, cc 300 mM, read-out: Apparent Affinity): 17.8 µM
